Data from patent US4829061A, “1-(4-Hydroxy-3,5-di-tert.-butylbenzoyl)homopiperazine, various derivatives thereof, processes for the preparation of these compounds, medicaments containing them, and their use” (Hoechst Aktiengesellschaft, priority 1987, dated 1989).

How the values were obtained:
[1] = Determination of toxicity in the rat, 14 days (weight gain); assay type: in vivo, rat (male and female Wistar); conditions: 50 or 75 mg/kg p.o. each day for 14 days
Protocol: (§1) The antiinflammatory effect of the compounds of the formula I, according to the invention, was tested on adjuvant arthritis, and the effect on forms of rheumatic disorders having a severe course (chronic graft-versus-host diseases and autoimmune diseases mediated by immune complexes) was tested on the chronic graft-versus-host (cGvH) reaction in the mouse and in the reverse passive Arthus reaction in the rat in accordance with the animal models described below. The tolerability was determined by determining the toxicity in rats, namely by continuous administration for 14 days.
Groups of 10 male and female Wistar rats were fed each day for a period of 14 days with 50 or 75 mg/kg p.o., and were weighed every 2 days. The experiment was terminated after 14 days, and the weight gain was determined. The same number of rats not treated with the products acted as controls. […] This is regarded as a critical parameter for the tolerability of a compound.

[2] = system: adjuvant-induced arthritis in the rat; assay: Adjuvant arthritis (method of Pearson), paw volume; assay type: in vivo, rat (male, Wistar-Lewis strain); conditions: 50 mg/kg p.o. once a day, day 1 to 5; reduction in increase in paw volume vs control
Protocol: as §1
The investigations were carried out by the method of Pearson (Arthrit. Rheum. 2 (1959) page 44). The test animals used were male rats of a Wistar-Lewis strain with a body weight between 130 and 200 g. The compounds to be tested were administered orally (p.o.) in doses of 50 mg per kg of body weight once a day from the 1st to the 5th day of the experiment. The animals in a control group received only the vehicle. Each product and control group comprised 8 animals. The criterion used for an effect was the percentage reduction in the increase in paw volume compared with that in the untreated control group.

[3] = system: reverse passive Arthus reaction; assay: Reverse passive Arthus reaction in the rat; assay type: in vivo, rat (female and male Sprague-Dawley); conditions: 1 hour before induction, paw volume 4 hours after ovalbumin challenge
Protocol: as §1
The experimental animals used were female and male Sprague-Dawley rats with a body weight between 80 and 100 g. The rats were divided into groups each comprising 8 animals. 1 hour before the Arthus reaction was induced by injection of 0.1 ml of an anti-rat IgG solution (0.6 mg/ml) into the right rear paw, the particular test substance or the pure vehicle (positive controls) was administered orally. Sodium chloride solution was injected into the left paw. A group of non-sensitized animals (negative controls) was likewise treated with ovalbumin in order to be able to rule out non-specific reactions to the protein. The parameter used to measure the action of the products was the percentage change in the increase in paw volume compared with that in the control group (positive controls) which, although sensitized, was untreated, 4 hours after the ovalbumin challenge, when the swelling had reached its maximum.

cGvH disease = assay: Chronic graft-versus-host (cGvH) reaction in the mouse; assay type: in vivo, mouse (female (DBA/2×C57Bl/6)F1); conditions: 6 weeks from day 21
Protocol: as §1
The features of graft-versus-host disease, which is based on an immune reaction originating from the transplant and directed against the host tissue, are, in the form having an acute course which almost always ends fatally, enlargement of the spleen, hepatomegaly, lymph node hypertrophy, hemolytic anemia, low immunoglobulin and complement levels, and diminished immunoreactivity. The chronic form of the disease, which has a somewhat milder course, results in lymphadenopathy, immune complex glomerulonephritis and excessive formation of non-organ-specific autoantibodies. The clinical picture of systemic lupus erythematosus (SLE), which is likewise one of the autoimmune diseases, has similar features.
Investigation of the compounds used according to the invention on the course of the cGvH disease induced in response to two injections of spleen and thymus cells, mixed together, in female mice of the (DBA/2×C57Bl/6)F1 generation was carried out by the design of experiment described by S. Popovic and R. R. Bartlett (Agents and Actions 21 (1987), 284-286), with intravenous administration, at a time interval of 7 days, of, in each case, 5×10^7 DBA/2 cells, likewise obtained from female donor animals, in 0.2 ml of culture medium. For reliable assessment of the course and appearance of the disease, a group of healthy animals was included as negative controls in all the experiments. The 6-week oral treatment of the animals with the disease took place from day 21 after the first donor cell injection, with administration once a day of the test substance or the pure vehicle (positive controls). […]
The action of the product was assessed on the basis of the inhibition of proteinuria and the cGvH index. The animals with the disease develop, as a consequence of the damage to nephrons due to deposition of immune complexes on the basement membranes of the glomeruli, a pronounced proteinuria which correlates with the extent of the glomerulonephritis and can easily be quantified by the increase in the amount of protein excreted with the urine. The second measured parameter, the cGvH index, is based on the great enlargement of the spleen (splenomegaly) caused by the cGvH reaction. […]

Row | SMILES | change in the weights (weight gain) [1] | % inhibition in paw volume day 5 [2] | Reverse passive Arthus reaction, % inhibition ([3]; 100 mg/kg p.o.) | % inhibition Proteinuria (cGvH disease; 5 mg/kg/day p.o.) | % inhibition cGvH index (cGvH disease; 5 mg/kg/day p.o.) | % inhibition Proteinuria (cGvH disease; 20 mg/kg/day p.o.) | % inhibition cGvH index (cGvH disease; 20 mg/kg/day p.o.) | Reverse passive Arthus reaction, % inhibition ([3]; 20 mg/kg p.o.) | Reverse passive Arthus reaction, % inhibition ([3]; 25 mg/kg p.o.)
1 | CC(C)(C)c1cc(C(=O)N2CCCN(C(=O)OCc3ccccc3)CC2)cc(C(C)(C)C)c1O [Example 1, 1-(4-Hydroxy-3,5-di-tert.-butylbenzoyl)-4-benzyloxycarbonylhomopiperazine] | no significant change in the weights | 25% | 25% | 100% | 57% | 80% | 75% | – | –
2 | CC(C)(C)c1cc(C(=O)N2CCCNCC2)cc(C(C)(C)C)c1O [Example 2, 1-(4-Hydroxy-3,5-di-tert.-butylbenzoyl)homopiperazine] | no significant change in the weights | 34% | – | – | – | – | – | 28% | 37%
